Measurements as given in ChEMBL document CHEMBL1201862, “PubChem BioAssay data set” (2004).
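A five-concentration, 48-hour dose response in 96-well plates underlies each endpoint, interpolated linearly between surrounding concentrations. GI50: concentration for 50% inhibition of growth.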 Activity calls are given as the source filed them. No stated cut-off is given here; in the data, active = GI50 up to about 1.1 µM and inactive = higher.

Assays:
Test in all cases: DTP human tumour cell line panel, 48 h
[1] = tested on: SF-295
[2] = tested on: Hs-578T
[3] = tested on: K562
[4] = tested on: NCI-H23
[5] = tested on: UACC-62
[6] = tested on: SF-268
[7] = tested on: MOLT-4
[8] = tested on: MDA-MB-435
[9] = tested on: OVCAR-5
[10] = tested on: SNB-19
[11] = tested on: HL-60
[12] = tested on: HCT-116
[13] = tested on: HOP-62
[14] = tested on: BT-549
[15] = tested on: NCI/ADR-RES
[16] = tested on: ACHN
[17] = tested on: A549
[18] = tested on: NCI-H522
[19] = tested on: MCF7
[20] = tested on: SNB-75

Measured: GI50

Cc1cc2c(cc1C(=O)c1ccc(N)cc1)OCO2
inactive: [1] 21.9 µM | [2] 48 µM | [3] 24.9 µM | [4] > 100 µM | [5] 31 µM | [6] 31.2 µM | [7] 40.1 µM | [8] 7.82 µM | [9] 27 µM | [10] 57.7 µM | [11] 49.9 µM | [12] 52 µM | [13] 58.7 µM | [14] 48.8 µM | [15] 25.1 µM | [16] > 100 µM | [17] 39.6 µM | [18] 19.1 µM | [19] 20.1 µM

COC(=O)C1CC(C=[N+](C)C)=C(SC)N1C(=O)OCc1ccccc1 (stereo not drawn)
inactive: [1] > 100 µM | [2] > 100 µM | [3] > 100 µM | [4] > 100 µM | [5] > 100 µM | [6] > 100 µM | [7] > 100 µM | [8] > 100 µM | [9] > 100 µM | [10] > 100 µM | [12] > 100 µM | [13] > 100 µM | [14] > 100 µM | [20] > 100 µM | [15] > 100 µM | [16] > 100 µM | [17] > 100 µM | [18] > 100 µM | [19] 95.9 µM

CN1CC=C(C#CC(C)(C)O)CC1
inactive: [1] > 37.5 µM | [2] > 37.5 µM | [3] > 37.5 µM | [4] > 37.5 µM | [5] > 37.5 µM | [6] > 37.5 µM | [7] > 37.5 µM | [8] > 37.5 µM | [9] > 37.5 µM | [10] > 37.5 µM | [11] > 37.5 µM | [12] > 37.5 µM | [13] > 37.5 µM | [14] > 37.5 µM | [20] > 37.5 µM | [15] > 37.5 µM | [16] > 37.5 µM | [17] > 37.5 µM | [19] > 37.5 µM

CC(C(O)c1ccccc1)N(C)/N=N/c1nc2c([nH]1)c(=O)n(C)c(=O)n2C (stereo not drawn)
inactive: [1] > 100 µM | [2] > 100 µM | [3] 91 µM | [4] 60.8 µM | [5] > 100 µM | [6] > 100 µM | [7] 38.3 µM | [8] 75.3 µM | [9] > 100 µM | [10] > 100 µM | [11] > 100 µM | [12] > 100 µM | [13] > 100 µM | [14] > 100 µM | [20] > 100 µM | [15] > 100 µM | [16] 36.6 µM | [17] 50.8 µM | [19] 26.1 µM

NC(Cc1ccc(OCc2ccccc2)cn1)C(=O)OCc1ccccc1 (stereo not drawn)
inactive: [1] > 100 µM | [2] > 100 µM | [3] > 100 µM | [4] > 100 µM | [8] > 100 µM | [9] > 100 µM | [10] > 100 µM | [11] > 100 µM | [12] > 100 µM | [13] > 100 µM | [14] > 100 µM | [15] > 100 µM | [16] > 100 µM | [17] > 100 µM | [18] > 100 µM | [19] > 100 µM

CCC1c2[nH]c3ccccc3c2C[C@H]2C(=O)NC(Cc3c[nH]c4ccccc34)C(=O)N12 (stereo partly drawn)
inactive: [1] 17.3 µM | [2] 22.6 µM | [3] 27.6 µM | [4] 25.5 µM | [5] 15.5 µM | [6] 29.7 µM | [7] 15.9 µM | [8] 19.7 µM | [9] 25.8 µM | [10] 37.5 µM | [11] 19.2 µM | [12] 18 µM | [13] 24 µM | [14] 22.6 µM | [15] 27.9 µM | [16] 29.4 µM | [17] 28 µM | [18] 22.6 µM | [19] 27.3 µM

COc1cc(COC(=O)N(CC(=O)O)c2ccccc2)c([N+](=O)[O-])cc1OC
inactive: [1] > 100 µM | [2] > 100 µM | [3] > 100 µM | [4] > 100 µM | [5] > 100 µM | [6] > 100 µM | [7] > 100 µM | [8] > 100 µM | [9] > 100 µM | [10] > 100 µM | [11] > 100 µM | [13] > 100 µM | [14] > 100 µM | [20] > 100 µM | [15] > 100 µM | [16] > 100 µM | [17] > 100 µM | [19] > 100 µM

Cc1cc(N(CCC#N)CCC#N)ccc1C(/N=N\c1ccc([N+](=O)[O-])cc1)=N\NC(=O)c1cc(Cl)ccc1O
inactive: [1] 29.1 µM | [2] 15.7 µM | [3] 35.2 µM | [4] 15.6 µM | [5] 22.9 µM | [6] 19.9 µM | [7] 20.3 µM | [8] 64.9 µM | [9] > 100 µM | [10] 34.7 µM | [12] 25.5 µM | [13] 26.2 µM | [14] 34.8 µM | [20] > 100 µM | [15] 28.7 µM | [16] 27.8 µM | [17] 38.6 µM | [18] 9.35 µM | [19] 22.6 µM
